The test system of assay [1] is chimera Fuc-TC18: Fuc-TVI (1-85) plus Fuc-TIII (87-160) plus Fuc-TVI (160-359). The note with it: acceptor 0.25-167 mM, 3 mM GDP-[14C]fucose (so in the source), pH 6.2, 37° C. Here is the method: (§1) Extracts for α(1,3)Fuc-T assays were prepared by harvesting COS-7 cells 72 hours after transfection, and solubilizing the cell pellets in 1% Triton X-100 (Kukowska-Latallo, J. F., et al (1990) Genes Devel., vol. 4, 1288-1303; Lowe, J. B., et al (1991) J. Biol. Chem., vol. 266, 17467-17477; Weston, B. W., et al (1992) J. Biol. Chem., vol. 267, 4152-4160; Weston, B. W., et al (1992) J. Biol. Chem. vol. 267, 24575-24584). Cell extract protein contents were determined with a micro BCA protein assay reagent (Pierce). Fucosyltransferase assays were performed in a final volume of 20 μl, and contained 25 mM sodium cacodylate (pH 6.2), 5 mM ATP, 10 mM L-fucose, 20 mM MnCl2 and 3 mM GDP-[^14 C]fucose. Cell extract protein concentration was varied to approximate linear reaction rate conditions (net [14C]-fucose incorporation rate of a less than twenty percent of total input GDP-[^14 C]fucose radioactivity). […] Reactions were incubated at 37° C. for one hour and were terminated by the addition of 20 μl ethanol, followed by dilution with […] water. The total radioactivity in each reaction was determined by subjecting an aliquot to scintillation counting. To assess the amount of radioactive fucose incorporated into product, an additional aliquot was applied to a Dowex 1×2-400 column in the formate form (Sasaki, K., et al (1994) J. Biol. Chem., vol. 269, 14730-14737; Natsuka, S., et al (1994) J. Biol. Chem., vol. 269, 16789-16794; Macher, B. A., et al (1991) Glycobiology, vol. 1, 577-584; Natsuka, S., and Lowe, J. B. (1994) Curr. Opin. Struct. Biol., vol. 4, 683-691). The flow through fraction plus an additional 2 ml of a water column "wash" was collected, pooled and subjected to scintillation counting. Control assays containing no added acceptor substrate were also completed in parallel.

For assay [2], the system named is chimera Fuc-TC19: Fuc-TIII (1-99) plus Fuc-TVI (99-159) plus Fuc-TIII (161-361). The note with it: acceptor 0.25-167 mM, 3 mM GDP-[14C]fucose (so in the source), pH 6.2, 37° C. Here is the method: as §1
For assay [3], the system named is chimera Fuc-TC20: Fuc-TVI (1-98) plus Fuc-TIII (100-160) plus Fuc-TVI (160-359). The conditions noted are these: acceptor 0.25-167 mM, 3 mM GDP-[14C]fucose (so in the source), pH 6.2, 37° C. Here is the method:
as §1

Assay [4] has as its system chimera Fuc-TC2: Fuc-TIII (1-160) plus Fuc-TVI (160-359). The note with it: acceptor 0.25-167 mM, 3 mM GDP-[14C]fucose (so in the source), pH 6.2, 37° C. The method, then: as §1
For assay [5], the system named is chimera Fuc-TC4: Fuc-TVI (1-159) plus Fuc-TIII (161-361). The conditions noted are these: acceptor 0.25-167 mM, 3 mM GDP-[14C]fucose (so in the source), pH 6.2, 37° C. The method, then: as §1
For assay [6], the target named is human Fuc-TVI (α(1,3)fucosyltransferase), wild type, SEQ ID NO:14 (Homo sapiens, UniProt P51993). The conditions noted are these: read-out: Apparent Km LNB-I; acceptor 0.25-167 mM, 3 mM GDP-[14C]fucose (so in the source), pH 6.2, 37° C. The method, then: as §1
For assay [7], the target named is IgG-Sepharose. Description: batch binding of conditioned medium to IgG-Sepharose, enzyme activity assayed.
Assay [8] concerns the target IgG-Sepharose. As to the kind of experiment: batch binding of conditioned medium to IgG-Sepharose, washed matrix assayed for enzyme activity.

Like-named read-outs stand apart in the source and are kept apart here.

For the compound `CC(=O)N[C@H]1C(O)O[C@H](CO)[C@@H](O)[C@@H]1O[C@@H]1O[C@H](CO)[C@H](O)[C@H](O)[C@H]1O` (stereo partly shown) [LNB-I, lacto-N-biose I], the Km in assay [1] (read-out: Apparent Km LNB-I), in assay [2] (read-out: Apparent Km LNB-I), in assay [3] (read-out: Apparent Km LNB-I), in assay [4] (read-out: Apparent Km LNB-I), in assay [5] (read-out: Apparent Km LNB-I) and in assay [6] was above 50 mM throughout.

For `CC(=O)N[C@H]1C(O)O[C@H](CO)[C@@H](O[C@@H]2O[C@H](CO)[C@H](O)[C@H](O)[C@H]2O)[C@@H]1O` (stereo partly shown) [LacNAc, N-acetyllactosamine], the Km in assay [1] (read-out: Apparent Km LacNAc) was above 50 mM; in assay [2] (read-out: Apparent Km LacNAc), 1.1 mM; in assay [3] (read-out: Apparent Km LacNAc), above 50 mM; in assay [4] (read-out: Apparent Km LacNAc) it was above 50 mM; in assay [5] (read-out: Apparent Km LacNAc), 5.8 mM.

“protein A-Fuc-TIV fusion protein encoded by pPROTA-α(Fuc-TIV)c (from UniProt P02976) (enzyme)”: in the assay with IgG-Sepharose [7], the percent of released activity retained worked out at 100%.

Regarding “protein A-Fuc-TV fusion protein encoded by pPROTA-Fuc-TVc (from UniProt P02976) (enzyme)”, the percent of released activity retained in the assay with IgG-Sepharose [7] was found to be 100%.

With “protein A-fucosyltransferase fusion protein encoded by pPROTA-α(1,3/1,4)FTc (from UniProt P02976) (enzyme)”, the percent of released activity retained with IgG-Sepharose [7] amounted to 100%. Moreover, the percent of activity recovered from the matrix after exhaustive washing with IgG-Sepharose [8] was 24%.

As for “protein A-α(1,2)fucosyltransferase fusion protein encoded by pPROTA-α(1,2)FTc (from UniProt P02976) (enzyme)”, the percent of released activity retained with IgG-Sepharose [7] stood at 100%.

The values above are taken from patent US5770420A, “Methods and products for the synthesis of oligosaccharide structures on glycoproteins, glycolipids, or as free molecules, and for the isolation of cloned genetic sequences that determine these structures” (The Regents of the University of Michigan, priority 1995, dated 1998).
